Reference: patent US8367714B2, “Cannabinoid receptor targeted agent” (Vanderbilt University, priority 2007, dated 2013)

Columns and labels:
CB2 receptor [1] = target: CB2 receptor (Homo sapiens, UniProt P34972); details: cited from earlier work
CB2 receptor [2] = target: T1, CB2 receptor (Mus musculus, UniProt P47936); assay: Fluorescence imaging of live DBT cells (2D4 CB2-expressing clone and wild type) and competition study; type: cell-based; details: 5 μM, control for non-specific binding due to the dye (FIG. 2)
T1 construct: expressed in transfected cells; host or cells: DBT mouse astrocytoma cells, 2D4 clone; wild-type DBT cells lack CB2
T1 sequence (P47936 whole entry): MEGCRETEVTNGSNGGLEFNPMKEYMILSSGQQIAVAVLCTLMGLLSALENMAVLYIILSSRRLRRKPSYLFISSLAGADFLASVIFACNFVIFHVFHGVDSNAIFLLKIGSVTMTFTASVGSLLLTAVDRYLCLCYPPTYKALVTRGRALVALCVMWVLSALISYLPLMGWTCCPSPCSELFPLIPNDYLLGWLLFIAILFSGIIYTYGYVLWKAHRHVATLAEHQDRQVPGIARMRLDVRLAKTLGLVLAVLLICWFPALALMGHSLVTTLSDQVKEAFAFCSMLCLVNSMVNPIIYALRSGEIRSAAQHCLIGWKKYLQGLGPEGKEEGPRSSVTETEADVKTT
Excerpt: To test whether NIRmbc94 reliably binds to the CB2 receptor, we already had in place a system wherein the receptor was both absent and present.

CB2 receptor (Homo sapiens, UniProt P34972), sequence (P34972 whole entry): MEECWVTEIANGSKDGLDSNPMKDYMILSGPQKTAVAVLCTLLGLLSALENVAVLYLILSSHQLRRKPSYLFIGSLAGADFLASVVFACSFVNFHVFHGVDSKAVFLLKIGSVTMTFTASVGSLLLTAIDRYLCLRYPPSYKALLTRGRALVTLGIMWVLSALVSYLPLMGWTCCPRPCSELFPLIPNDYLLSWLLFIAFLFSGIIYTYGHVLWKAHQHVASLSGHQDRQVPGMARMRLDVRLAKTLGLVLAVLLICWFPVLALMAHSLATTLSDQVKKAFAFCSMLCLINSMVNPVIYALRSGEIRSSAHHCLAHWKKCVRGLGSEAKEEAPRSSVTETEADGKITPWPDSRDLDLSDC

For `COc1ccc(C(=O)c2c(C)n(CCN3CCOCC3)c3cc(I)ccc23)cc1` [AM630], the CB2/CB1 affinity ratio (CB2 receptor [1]) is listed as 165.
In the case of `CC1(C)C(=CC=C2CCCC(C=CC3=[N+](CCCCCC(=O)[O-])c4ccc(S(=O)(=O)[O-])cc4C3(C)C)=C2Oc2ccc(S(=O)(=O)[O-])cc2)N(CCCCS(=O)(=O)[O-])c2ccc(S(=O)(=O)[O-])cc21.[Na+].[Na+].[Na+].[Na+]` [IRDye™ 800CW acid], the “fluorescence of cells dosed with free dye” value (CB2 receptor [2]) is reported as “does not produce significant fluorescence”.
For SR144528, the CB2/CB1 affinity ratio (CB2 receptor [1]) is given as greater than 700.
